Values after ≈ are worked out from the molar mass of the structure shown.
Tests used:
[1] = test system: Mycobacterium tuberculosis; assay: Antitubercular activity against Mycobacterium tuberculosis H37Ra ATCC 25177 assessed as reduction in microbial growth after 7 days by Alamar blue assay; type: functional; conditions: H37Ra ATCC 25177, 168 h, time 7 day
Vero = assay: Cytotoxicity against African green monkey Vero cells incubated for 24 hrs by MTT assay; type: cell-based; conditions: Chlorocebus sabaeus
[2] = Selectivity index, ratio of IC50 for cytotoxicity against African green monkey Vero cells to MIC for antimycobacterial activity against Mycobacterium tuberculosis H37Ra ATCC 25177; type: toxicity, cell-based; conditions: read-out: Selectivity Index
[3] = Stability of compound in acetonitrile assessed as retention time at 6.05 10^-5mol/L up to 48 hrs by HPLC-DAD method; type: physicochemical
[4] = Stability of compound in acetonitrile at 6.05 10^-5mol/L after 48 hrs by HPLC-DAD method; type: physicochemical; conditions: at 60.5 µM
[5] = Stability of compound in acetonitrile assessed as retention time at 4.52 10^-5mol/L up to 48 hrs by HPLC-DAD method; type: physicochemical
[6] = Stability of compound in acetonitrile at 4.52 10^-5mol/L after 48 hrs by HPLC-DAD method; type: physicochemical; conditions: at 45.2 µM
[7] = Stability of compound in acetonitrile assessed as retention time at 4.81 10^-5mol/L up to 48 hrs by HPLC-DAD method; type: physicochemical
[8] = Stability of compound in acetonitrile at 4.81 10^-5mol/L after 48 hrs by HPLC-DAD method; type: physicochemical; conditions: at 48.1 µM
[9] = Stability of compound in acetonitrile at 4.76 10^-5mol/L after 48 hrs by HPLC-DAD method; type: physicochemical; conditions: at 47.6 µM
[10] = Stability of compound in acetonitrile assessed as retention time at 6 10^-5mol/L up to 48 hrs by HPLC-DAD method; type: physicochemical
[11] = Stability of compound in acetonitrile at 6 10^-5mol/L after 48 hrs by HPLC-DAD method; type: physicochemical; conditions: at 60 µM
[12] = Stability of compound in acetonitrile assessed as retention time at 4.23 10^-5mol/L up to 48 hrs by HPLC-DAD method; type: physicochemical
[13] = Stability of compound in acetonitrile at 4.23 10^-5mol/L after 48 hrs by HPLC-DAD method; type: physicochemical; conditions: at 42.3 µM
[14] = Stability of compound in acetonitrile assessed as retention time at 6.48 10^-5mol/L up to 48 hrs by HPLC-DAD method; type: physicochemical
[15] = Stability of compound in acetonitrile at 6.48 10^-5mol/L after 48 hrs by HPLC-DAD method; type: physicochemical; conditions: at 64.8 µM

Compound	MIC [1]	also measured
O=C(CC1SC(=O)NC1=O)Oc1cccc(/C=N/NC(=O)c2cccc(Cl)c2)c1 (stereo not drawn)	128 mg/L	
O=C(CC1SC(=O)NC1=O)Oc1ccc(/C=N/NC(=O)c2cccnc2)cc1Br (stereo not drawn)	512 mg/L	
O=C(CC1SC(=O)NC1=O)Oc1ccc(/C=N/NC(=O)c2ccc(Cl)cc2Cl)cc1 (stereo not drawn)	64 mg/L	
O=C(/C=C1/SC(=O)NC1=O)Oc1ccccc1/C=N/NC(=O)c1cccc(Cl)c1	64 mg/L	
COc1cc(/C=N/NC(=O)c2cccc(Cl)c2)ccc1OC(=O)/C=C1/SC(=O)NC1=O	128 mg/L	
O=C(CC1SC(=O)NC1=O)Oc1cccc(/C=N/NC(=O)c2ccc(Cl)cc2Cl)c1 (stereo not drawn)	128 mg/L	
COc1cc(/C=N/NC(=O)c2ccc(Cl)cc2Cl)ccc1OC(=O)CC1SC(=O)NC1=O (stereo not drawn)	128 mg/L	
COc1cc(/C=N/NC(=O)c2cccc(Cl)c2)ccc1OC(=O)CC1SC(=O)NC1=O (stereo not drawn)	128 mg/L	
O=C(CC1SC(=O)NC1=O)Oc1ccc(/C=N/NC(=O)c2cccnc2)cc1 (stereo not drawn)	512 mg/L	
O=C(/C=C1/SC(=O)NC1=O)Oc1ccccc1/C=N/NC(=O)c1ccncc1	4 mg/L	IC50 (Vero): > 200 mg/L; selectivity ratio [2]: > 50; Retention_time [3]: 4.36 min; Stabilty [4]: Stable
CCOc1cc(/C=N/NC(=O)c2cccnc2)ccc1OC(=O)CC1SC(=O)NC1=O (stereo not drawn)	> 512 mg/L	
O=C(/C=C1/SC(=O)NC1=O)Oc1ccc(/C=N/NC(=O)c2cccc(Cl)c2)cc1	128 mg/L	
CCOc1cc(/C=N/NC(=O)c2ccccn2)ccc1OC(=O)CC1SC(=O)NC1=O (stereo not drawn)	> 512 mg/L	
O=C(CC1SC(=O)NC1=O)Oc1ccc(/C=N/NC(=O)c2cccc(Cl)c2)cc1 (stereo not drawn)	128 mg/L	
CCOc1cc(/C=N/NC(=O)c2ccncc2)ccc1OC(=O)CC1SC(=O)NC1=O (stereo not drawn)	1 mg/L	IC50 (Vero): 50.9 mg/L (≈ 115 µM); selectivity ratio [2]: 50.9; Retention_time [5]: 7.64 min; Stabilty [6]: Stable
O=C(CC1SC(=O)NC1=O)Oc1ccc(/C=N/NC(=O)c2ccncc2)cc1Cl (stereo not drawn)	1 mg/L	IC50 (Vero): 31.9 mg/L (≈ 73.7 µM); selectivity ratio [2]: 31.9; Retention_time [7]: 7.59 min; Stabilty [8]: Stable
O=C(/C=C1/SC(=O)NC1=O)Oc1ccccc1/C=N/NC(=O)c1ccccn1	16 mg/L	
COc1cc(/C=N/NC(=O)c2ccncc2)ccc1OC(=O)CC1SC(=O)NC1=O (stereo not drawn)	1 mg/L	IC50 (Vero): 203 mg/L (≈ 475 µM); selectivity ratio [2]: 203; Stabilty [9]: Stable
O=C(CC1SC(=O)NC1=O)Oc1ccc(/C=N/NC(=O)c2ccc(Br)cc2)cc1 (stereo not drawn)	256 mg/L	
O=C(CC1SC(=O)NC1=O)Oc1ccc(/C=N/NC(=O)c2ccc(Cl)cc2)cc1 (stereo not drawn)	128 mg/L	
O=C(/C=C1/SC(=O)NC1=O)Oc1cccc(/C=N\NC(=O)c2ccncc2)c1	1 mg/L	IC50 (Vero): 143 mg/L (≈ 361 µM); selectivity ratio [2]: 143; Retention_time [10]: 4.36 min; Stabilty [11]: Stable
O=C(CC1SC(=O)NC1=O)Oc1ccc(/C=N/NC(=O)c2ccncc2)cc1Br (stereo not drawn)	1 mg/L	IC50 (Vero): 190 mg/L (≈ 398 µM); selectivity ratio [2]: 190; Retention_time [12]: 8.8 min; Stabilty [13]: Stable
O=C(CC1SC(=O)NC1=O)Oc1ccc(/C=N/NC(=O)c2cccnc2)cc1Cl (stereo not drawn)	512 mg/L	
O=C(CC1SC(=O)NC1=O)Oc1ccc(/C=N/NC(=O)c2ccncc2)cc1 (stereo not drawn)	1 mg/L	IC50 (Vero): 91.7 mg/L (≈ 230 µM); selectivity ratio [2]: 91.7; Retention_time [14]: 3.48 min; Stabilty [15]: Stable
O=C(/C=C1/SC(=O)NC1=O)Oc1ccccc1/C=N/NC(=O)c1cccnc1	128 mg/L	
CC[C@@H](CO)NCCN[C@@H](CC)CO [ETHAMBUTOL]	2 mg/L	
NNC(=O)c1ccncc1 [ISONIAZID]	0.25 mg/L	
CO[C@H]1/C=C/O[C@@]2(C)Oc3c(C)c(O)c4c(O)c(c(/C=N/N5CCN(C)CC5)c(O)c4c3C2=O)NC(=O)/C(C)=C\C=C\[C@H](C)[C@H](O)[C@@H](C)[C@@H](O)[C@@H](C)[C@H](OC(C)=O)[C@@H]1C [RIFAMPIN]	0.004 mg/L	IC50 (Vero): 138 mg/L (≈ 167 µM); selectivity ratio [2]: 34400
CN[C@@H]1[C@H](O[C@H]2[C@H](O[C@H]3[C@H](O)[C@@H](O)[C@H](N=C(N)N)[C@@H](O)[C@@H]3N=C(N)N)O[C@@H](C)[C@]2(O)C=O)O[C@@H](CO)[C@H](O)[C@H]1O [STREPTOMYCIN]	0.5 mg/L	

Source: ChEMBL document CHEMBL4680164, “Synthesis and antimycobacterial activity of thiazolidine-2,4-dione based derivatives with halogenbenzohydrazones and pyridinecarbohydrazones substituents” (Eur J Med Chem, 2020)
